Source: patent US20030144347A1, “Method for treating autoimmune disease” (priority 2001, published 2003)

Columns and labels:
[1] = tested on: patient with rapid mood swings and severe intense itching; experiment: Case report: patient with rapid mood swings and severe intense itching; type: in vivo, human; details: Example 19; 12.5 mg at bedtime increased weekly until 50 mg
Protocol: A patient presented with rapid mood swings and a complaint of severe intense itching from clothing tags and some clothing, which began over twenty years ago. They were begun on gabapenten which was increased to 300 mg qid. […] Their itching was unchanged. They were begun on Topamax 12.5 mg at bedtime which was increased weekly by 12.5 mg until 50 mg.

[2] = tested on: rodent models of epilepsy; details: several rodent models of epilepsy; cited from earlier work
[3] = tested on: patient suffering from multiple autoimmune diseases; experiment: Case report: patient suffering from multiple autoimmune diseases; type: in vivo, human; details: Example 15
Protocol: A patient suffering from multiple autoimmune diseases was treated with topiramate. The patient was suffering from systemic lupus erythematosis (SLE) acquired anemia of gamma globulins, rheumatoid arthritis, Renaud's phenomena and Hashimotos thyroiditis. The patient was also taking medrol at doses of 32 mg per day and up to 132 mg per day and 25 mg weekly injections of methotrexate.
The topiramate treatment was begun at 15 mg per day and increased weekly by 15 mg to […] and then stabilized at 50 mg per day after two months. […] The frequency and intensity of their iritis, which was occurring every one to two months and lasting for 1 to 2 weeks, described as an “incredible pain relieved only by wrapping my eyes and head with a black towel”, decreased. It has occurred only once since using Topamax® when their parent was dying. […] The patient drove to their last appointment, which is the first time they have been able to do so in five years. They have now had consistent benefits for more than 6 months.

[4] = tested on: patient suffering from pemphigus vulgaris; experiment: Case reports: patients suffering from pemphigus vulgaris; type: in vivo, human
Protocol: A patient suffering from pemphigus vulgaris and taking 15 mg of chobetesol propionate per day began taking 15 mg per day of topiramate. The dose was increased to 45 mg in divided dosages over a three week period. […] This occurred and was maintained even after chobetesol propionate was reduced to 5 mg every 3 days, at 8 weeks from the initial dose of 15 mg per day. […] A patient suffering from permphigus vulgaris and taking 50 mg twice a day of immuran and 20 mg per day of prednisone began taking 15 mg per day of topiramate. The dose was increased to 45 mg per day in divided dosages over a three-week period. […] This occurred in spite of reducing the immuran to 50 mg and prednisone to 10 mg each day, which were their lowest dosages in two years. […] These improvements continued to be maintained at 20 weeks and Ig antibody was zero.

[5] = tested on: patient with eosinophilic gastroenteritis; experiment: Case report: patient with recurrent eosinophilic gastroenteritis; type: in vivo, human; details: Example 20; 7.5 mg every three days then 7.5 mg every other day; withdrawn from prednisone
Protocol: A patient presented depressed related to a 15 pound weight gain following a recurrent of eosinophilic gastroenteritis treated with 20 mg of prednisone. This was their third bout in two years, all confirmed by a stomach biopsy. Each recurrence began between four and five months after being withdrawn from steroids, which had caused physical side effects and suspiciousness. A trial of Topamax 7.5 mg every three days and then 7.5 mg every other day was begun.

CC1(C)O[C@@H]2[C@@H](CO[C@@]3(COS(N)(=O)=O)OC(C)(C)O[C@@H]23)O1 [topiramate, 2,3:4,5-bis-O-(1-methylethylidence)-β-D-fructopyranose sulfamate]
itching [1]: no itching at all | mood [1]: true stabilization of my mood | seizures [2]: effectively block seizures | time without another episode of iritis [3]: five | frequency and intensity of iritis ([3]; 50 mg per day): decreased | duration of consistent benefits ([3]; despite cessation of methotrexate): more than 6 months | pain when walking ([3]; up to 65 mg per day, stabilized at 50 mg per day, medrol reduced to 5 mg per day): very significant decrease in pain when walking | time at which improvement continued to be maintained ([4]; Example 13): 12 weeks | lesions ([4]; Example 13, 45 mg in divided dosages, chobetesol propionate reduced): began to shrink, dried up and formed a scab, which came off leaving normal skin | time at which improvements continued to be maintained ([4]; Example 14): 20 weeks | lesions ([4]; Example 14, 30 mg twice a day): second lesion healing | lesions ([4]; Example 14, 45 mg per day, at three weeks): one lesion was shrinking | lesions ([4]; Example 14, 45 mg per day, by four weeks, immuran and prednisone reduced): healed and the second lesion was beginning to shrink | Ig antibody ([4]; Example 14, at 20 weeks): zero | time without recurrence of symptoms [5]: 19 months
